Molecules are shown by their SMILES.

As usually defined, the Kd is the constant that tells how readily two partners part at equilibrium. Read a high Kd as a looser complex.

The target of this assay is Bmt5 (Saccharomyces cerevisiae, UniProt P40493). Description: biochemical.
Chain of Bmt5 (P40493 whole entry): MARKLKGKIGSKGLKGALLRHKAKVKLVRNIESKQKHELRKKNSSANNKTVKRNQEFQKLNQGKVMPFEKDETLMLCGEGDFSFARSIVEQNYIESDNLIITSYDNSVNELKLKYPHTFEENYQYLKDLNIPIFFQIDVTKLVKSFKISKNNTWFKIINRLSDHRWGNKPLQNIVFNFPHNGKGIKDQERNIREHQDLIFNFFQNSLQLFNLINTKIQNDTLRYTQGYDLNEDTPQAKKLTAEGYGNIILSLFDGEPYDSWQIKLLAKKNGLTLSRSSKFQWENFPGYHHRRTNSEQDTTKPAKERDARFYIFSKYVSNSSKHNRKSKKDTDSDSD

In turn, `C[S+](CC[C@H](N)C(=O)O)C[C@H]1O[C@@H](n2cnc3c(N)ncnc32)[C@H](O)[C@@H]1O` (stereo partly shown) [SAM] gave a Kd of 109 ± 10.8 µM.

The values are drawn from publication PMC3950682 (Nucleic Acids Research, 2013).
